What is called EC50 is the concentration at which the effect is half-maximal.

Structures are written as SMILES.

The test system of one test is HCV replicon (HCV 1b-377-neo replicon cells, Huh7). Put plainly: HCV replicon cell-based FRET assay. To be noted: Hepatitis C virus, Huh-7. How it is done: HCV Replion assays were utilized in the present invention, and were prepared, conducted and validated as follows:
An HCV replicon whole cell system was established as described by Lohmann V, Korner F, Koch J, Herian U, Theilmann L, Bartenschlager R., Science 285(5424): 110–3 (1999). This system enabled us to evaluate the effects of our HCV Protease compounds on HCV RNA replication. Briefly, using the HCV strain 1B sequence described in the Lohmann paper (Assession number: AJ238799), an HCV cDNA was synthesized by Operon Technologies, Inc. (Alameda, Calif.), and the full-length replicon was then assembled in plasmid pGem9zf(+) (Promega, Madison, Wis.) using standard molecular biology techniques. The replicon consists of (i) the HCV 5′ UTR fused to the first 12 amino acids of the capsid protein, (ii) the neomycin phosphotransferase gene (neo), (iii) the IRES from encephalomyocarditis virus (EMCV), and (iv) HCV NS3 to NS5B genes and the HCV 3′ UTR. Plasmid DNAs were linearized with ScaI and RNA transcripts were synthesized in vitro using the T7 MegaScript transcription kit (Ambion, Austin, Tex.) according to manufacturer's directions. To generate cell lines, 4×10^6 Huh-7 cells (kindly provided by R. Bartenschlager and available from Health Science Research Resources Bank, Japan Health Sciences Foundation) were electroporated (GenePulser System, Bio-Rad) with 10 microgram(“μg”) of RNA transcript and plated into 100-mm dishes. After 24 h, selective media containing 1.0 milligrams/milliliter (“mg/ml”) G418 was added and media was changed every 3 to 5 days. Approximately 4 weeks after electroporation, small colonies were visible which were isolated and expanded for further analysis. These cell lines were maintained at 37° C., 5% CO2, 100% relative humidity in DMEM (Cat# 11965-084) Gibco-BRL, Rockville, Md., with 10% heat inactivated calf serum (Sigma), 10 ml of 100× penicillin/streptomycin (Cat# 15140-122) Gibco-BRL, Rockville, Md., Geneticin (Cat# 10131-027) Gibco-BRL, Rockville, Md. at 1 mg/ml. One of the cell lines (deposited as ATCC Accession No. PTA-4583 in the American Type Culture Collection) which had approximately 3,000 copies of HCV replicon RNA/cell was used for development of the assay (HCV 1b-377-neo replicon cells).
Huh7 cells, constitutively expressing the HCV replicon, were grown in Dulbecco's Modified Eagle Media (DMEM) containing 10% Fetal calf serum (FCS) and 1 mg/ml G418 (Gibco-BRL). Cells were seeded the night before (1.5×10^4 cells/well) in 96-well tissue-culture sterile plates. Compound and no compound controls were prepared in DMEM containing 4% FCS, 1:100 Penicillin/Streptomysin, 1:100 L-glutamine and 5% DMSO in the dilution plate (0.5% DMSO final concentration in the assay). Compound/DMSO mixes were added to the cells and incubated for 4 days at 37° C. After 4 days, cells were first assessed for cytotoxicity using alamar Blue (Trek Diagnotstic Systems) for a CC50 reading. The toxicity of compound (CC50) was determined by adding 1/10th volume of alamar Blue to the media incubating the cells. After 4 hr, the fluorescence signal from each well was read, with an excitation wavelength at 530 nm and an emission wavelength of 580 nm, using the Cytofluor Series 4000 (Perspective Biosystems). Plates were then rinsed thoroughly with Phosphate-Buffered Saline (PBS) (3 times 150 μl). The cells were lysed with 25 μl of a lysis assay reagent containing an HCV protease substrate (5× cell Luciferase cell culture lysis reagent (Promega #E153A) diluted to 1× with distilled water, NaCl added to 150 mM final, the FRET peptide diluted to 10 μM final from a 2 mM stock in 100% DMSO). The HCV protease substrate (FRET peptide; AnaSpec, Inc. cat #22991, described by Taliani et al. in Anal. Biochem. 240(2):60–67 (1996)) contains a fluorescence donor, EDANS, near one end of the peptide and an acceptor, DABCYL, near the other end. […]
With `COc1ccc2c(OC3CC4C(=O)NC5(C(=O)NS(=O)(=O)C6CC6)CC5C=CCCCSCC(NC(=O)OCC(C)(C)C)C(=O)N4C3)nccc2c1` (centres unmarked) [Compound 75], the EC50 is under 50 nM.

With `COc1ccc2c(OC3CC4C(=O)NC5(C(=O)NS(=O)(=O)C6(C)CC6)CC5C=CCCCCCC(NC(=O)OC(C)(C)C)C(=O)N4C3)nccc2c1` (centres unmarked) [Compound 53], the EC50 is under 50 nM.

Regarding `CC(C)(C)OC(=O)N[C@H]1CCCCC/C=C\[C@@H]2C[C@@]2(C(=O)O)NC(=O)[C@@H]2C[C@@H](Oc3nccc4ccccc34)CN2C1=O` [Compound 1, 14-tert-Butoxycarbonylamino-18-(isoquinolin-1-yloxy)-2,15-dioxo-3,16-diaza-tricyclo[14.3.0.0^4,6]nonadec-7-ene-4-carboxylic acid], the concentration for a half-maximal effect (EC50) lay in the range of 500 to 5000 nM.

For `CC1(OC(=O)NC2CCCCCC=CC3CC3(C(=O)NS(=O)(=O)C3CC3)NC(=O)C3CC(Oc4nccc5ccccc45)CN3C2=O)CCCC1` (centres unmarked) [Compound 50], the EC50 is under 50 nM.

Molecule `CC(C)(C)OC(=O)N[C@H]1CCCCC/C=C\[C@@H]2C[C@@]2(C(=O)NS(C)(=O)=O)NC(=O)[C@@H]2C[C@@H](Oc3nccc4ccccc34)CN2C1=O` [Compound 2, [18-(Isoquinolin-1-yloxy)-4-methanesulfonylaminocarbonyl-2,15-dioxo-3,16-diaza-tricyclo[14.3.0.0^4,6]nonadec-7-en-14-yl]-carbamic acid tert-butyl ester] returned an EC50 of 50 to 500 nM.

In the case of `COc1ccc2c(O[C@@H]3C[C@H]4C(=O)N[C@]5(C(=O)NS(=O)(=O)C6CC6)C[C@H]5/C=C\CCCCC[C@H](NC(=O)OC(C)(C)C)C(=O)N4C3)nccc2c1` [Compound 17B, [4-Cyclopropanesulfonylaminocarbonyl-18-(6-methoxy-isoquinolin-1-yloxy)-2,15-dioxo-3,16-diaza-tricyclo[14.3.0.0^4,6]nonadec-7-en-14-yl]-carbamic acid tert-butyl ester], the EC50 is under 50 nM.

As for `CC1(OC(=O)NC2CCCCCC=CC3CC3(C(=O)NS(=O)(=O)C3CC3)NC(=O)C3CC(Oc4nccc5ccccc45)CN3C2=O)CC1` (centres unmarked) [Compound 59], the EC50 was under 50 nM.

In turn, `COc1ccc2c(O[C@@H]3C[C@H]4C(=O)N[C@]5(C(=O)NS(=O)(=O)C6CC6)C[C@H]5/C=C\CCCS(=O)(=O)C[C@H](NC(=O)OC(C)(C)C)C(=O)N4C3)nccc2c1` [Compound 19] returned an EC50 of 50 to 500 nM.

`CCC1(S(=O)(=O)NC(=O)C23CC2C=CCCCS(=O)(=O)CC(NC(=O)OC(C)(C)C)C(=O)N2CC(Oc4nccc5cc(OC)ccc45)CC2C(=O)N3)CC1` (centres unmarked) [Compound 48]: the EC50 was in the range of 50 to 500 nM.

As for `COc1ccc2c(OC3CC4C(=O)NC5(C(=O)NS(=O)(=O)C6(C)CC6)CC5C=CCCCOC(C)C(NC(=O)OC(C)(C)C)C(=O)N4C3)nccc2c1` (centres unmarked) [Compound 66], the EC50 fell in the range of 50 to 500 nM.

In turn, `CC(C)(CCl)OC(=O)NC1CCCCCC=CC2CC2(C(=O)NS(=O)(=O)C2CC2)NC(=O)C2CC(Oc3nccc4ccccc34)CN2C1=O` (centres unmarked) [Compound 52] showed an EC50 of under 50 nM.

Molecule `COc1ccc2c(OC3CC4C(=O)NC5(C(=O)NS(=O)(=O)C6CC6)CC5C=CCOCCCC(NC(=O)OC(C)(C)C(F)(F)F)C(=O)N4C3)nccc2c1` (centres unmarked) [Compound 39] yielded an EC50 of under 50 nM.

As for `COc1ccc2c(OC3CC4C(=O)NC5(C(=O)NS(=O)(=O)C6(C)CC6)CC5C=CCCCOC(C)C(NC(=O)NC5CCCC5)C(=O)N4C3)nccc2c1` (centres unmarked) [Compound 69], the EC50 was under 50 nM.

`CS(=O)(=O)NC1CCCCCC=CC2CC2(C(=O)NS(=O)(=O)C2CC2)NC(=O)C2CC(Oc3nccc4ccccc34)CN2C1=O` (centres unmarked) [Compound 25] yielded an EC50 of 500 to 5000 nM.

In the case of `CC(C)(OC(=O)NC1CCCCCC=CC2CC2(C(=O)NS(=O)(=O)C2CC2)NC(=O)C2CC(Oc3nccc4ccccc34)CN2C1=O)C(F)(F)F` (centres unmarked) [Compound 51], the EC50 is under 50 nM.

Consider `COc1ccc2c(O[C@@H]3C[C@H]4C(=O)N[C@]5(C(=O)O)C[C@H]5/C=C\CCCSC(C)(C)[C@H](NC(=O)OC(C)(C)C)C(=O)N4C3)nccc2c1` [Compound 79, (1S,4R,6S,14R,18R)-7-cis-14-tert-Butoxycarbonylamino-13,13-dimethyl-18-(6-methoxy-isoquinolin-1-yloxy)-2,15-dioxo-12-thia-3,16-diazatricyclo[14.3.0.0^4,6]nonadec-7-ene-4-carboxylic acid], for which the EC50 lay within 5000 to 50000 nM.

For the molecule `COc1ccc2c(OC3CC4C(=O)NC5(C(=O)NS(=O)(=O)C6CC6)CC5C=CCOCCCC(NC(=O)NC(C)(C)C)C(=O)N4C3)nccc2c1` (centres unmarked) [Compound 34], the EC50 is under 50 nM.

In turn, `COc1ccc2c(OC3CC4C(=O)NC5(C(=O)NS(=O)(=O)C6(C)CC6)CC5C=CCCCSCC(NC(=O)OC(C)C)C(=O)N4C3)nccc2c1` (centres unmarked) [Compound 41] yielded an EC50 of under 50 nM.

`CCC1(S(=O)(=O)NC(=O)C23CC2C=CCCC[S+]([O-])CC(NC(=O)OC(C)(C)C)C(=O)N2CC(Oc4nccc5cc(OC)ccc45)CC2C(=O)N3)CC1` (centres unmarked) [Compound 47] registered an EC50 of under 50 nM.

`CC(C)(C)OC(=O)N[C@H]1CCCCC/C=C\[C@@H]2C[C@@]2(C(=O)NS(=O)(=O)C2(C)CC2)NC(=O)[C@@H]2C[C@@H](Oc3nccc4ccccc34)CN2C1=O` [Compound 8, [18-(Isoquinolin-1-yloxy)-4-(1-methyl-cyclopropanesulfonylaminocarbonyl)-2,15-dioxo-3,16-diaza-tricyclo[14.3.0.0^4,6]nonadec-7-en-14-yl]-carbamic acid tert-butyl ester] had an EC50 of under 50 nM.

Molecule `COc1ccc2c(OC3CC4C(=O)NC5(C(=O)NS(=O)(=O)C6(C)CC6)CC5C=CCOCCCC(NC(=O)NC5CCCC5)C(=O)N4C3)nccc2c1` (centres unmarked) [Compound 36] returned an EC50 of under 50 nM.

For `CC(C)(C)OC(=O)N[C@H]1CCCCC/C=C\[C@@H]2C[C@@]2(C(=O)NS(=O)(=O)C2(Cc3ccccc3)CC2)NC(=O)[C@@H]2C[C@@H](Oc3nccc4ccccc34)CN2C1=O` [Compound 5, [4-(1-Benzyl-cyclopropanesulfonylaminocarbonyl)-18-(isoquinolin-1-yloxy)-2,15-dioxo-3,16-diaza-tricyclo[14.3.0.0^4,6]nonadec-7-en-14-yl]-carbamic acid tert-butyl ester], the EC50 was 50 to 500 nM.

Take `CCCNC(=O)NC1CCCCCC=CC2CC2(C(=O)NS(=O)(=O)C2CC2)NC(=O)C2CC(Oc3nccc4ccccc34)CN2C1=O` (centres unmarked) [Compound 23]: the EC50 is under 50 nM.

For `COc1ccc2c(OC3CC4C(=O)NC5(C(=O)O)CC5C=CCCCSCC(NC(=O)OC(C)(C)C)C(=O)N4C3)nccc2c1` (centres unmarked) [Compound 18A, 14-tert-Butoxycarbonylamino-18-(6-methoxy-isoquinolin-1-yloxy)-2,15-dioxo-12-thia-3,16-diaza-tricyclo[14.3.0.0^4,6]nonadec-7-ene-4-carboxylic acid], the EC50 lay in the range of 500 to 5000 nM.

The molecule `COc1ccc2c(OC3CC4C(=O)NC5(C(=O)NS(=O)(=O)C6(C)CC6)CC5C=CCCCOC(C)C(NC(=O)OCC(C)(C)C)C(=O)N4C3)nccc2c1` (centres unmarked) [Compound 67] registered a 50% effective concentration (EC50) of 50 to 500 nM.

`COc1ccc2c(OC3CC4C(=O)NC5(C(=O)NS(=O)(=O)C6CC6)CC5C=CCOCCCC(NC(=O)OC(C)C)C(=O)N4C3)nccc2c1` (centres unmarked) [Compound 31]: the EC50 is under 50 nM.

As to `CCC1(S(=O)(=O)NC(=O)C23CC2C=CCCCOC(C)C(NC(=O)OC(C)(C)C)C(=O)N2CC(Oc4nccc5cc(OC)ccc45)CC2C(=O)N3)CC1` (centres unmarked) [Compound 70], the concentration for a half-maximal effect (EC50) is 50 to 500 nM.

`COc1ccc2c(OC3CC4C(=O)NC5(C(=O)O)CC5C=CCCCCCC(NC(=O)OC(C)(C)C)C(=O)N4C3)nccc2c1` (centres unmarked) [Compound 17A] gave an EC50 of 50 to 500 nM.

The same test, now with this note: Hepatitis C virus, Huh-7; read-out: EC50 value in the replicon assay.
`CC(C)(C)OC(=O)N[C@H]1CCCCC/C=C\[C@@H]2C[C@@]2(C(=O)NS(C)(=O)=O)NC(=O)[C@@H]2C[C@@H](Oc3nccc4ccccc34)CN2C1=O` [Compound 2, [18-(Isoquinolin-1-yloxy)-4-methanesulfonylaminocarbonyl-2,15-dioxo-3,16-diaza-tricyclo[14.3.0.0^4,6]nonadec-7-en-14-yl]-carbamic acid tert-butyl ester]: the EC50 amounted to 146 nM.
